In PubChem BioAssay AID1313 (NMMLSC, 2008):
Activity calls are given as the source filed them.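 Rule for the calls: active = compounds raising total GFP signal across six hours by more than 15% versus untreated cells; inactive = the rest.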 Peptide text beside a SMILES is read from it. * marks the point of attachment. Cbz = O=C(OCc1ccccc1)*

Test system: S. cerevisiae Sic1-GFP degradation, flow cytometry time course
Assay: inhibition of Sic1-GFP fusion degradation in yeast, secondary assay, flow cytometry, S. cerevisiae (AID 1313)
Details: stronger effect = higher value; for GFP expression remaining at 240 min: measured here: earlier time point

SMILES	GFP expression remaining at 360 min	GFP expression remaining at 240 min
CC(=O)N1C(=O)C(=C2C=C(C)OC(C)=C2)c2ccccc21	0.71% (inactive)	1.3%
CC(C)C[C@@H](C=O)NC(=O)[C@H](CC(C)C)NC(=O)[C@H](CC(C)C)NC(=O)OCc1ccccc1 (Cbz-Leu-Leu-Leu-aldehyde)	1.68% (inactive)	3.24%
